Columns and labels:
[1] = system: antibodies in sera from SARS patients (sera 1a, 1b, 2, 6, 37, 62, London, SARS-yellow, SARS-green); format: binding, human; design: Binding of serum 6 to linear peptides of protein X1 of SARS-CoV Urbani / Binding of serum 37 to linear peptides of protein X1 of SARS-CoV Urbani / Binding of serum 6 to looped/cyclic peptide (PEPSCAN-ELISA) / Binding of serum 37 to looped/cyclic peptide (PEPSCAN-ELISA) / Binding of serum 37 to looped/cyclic peptides of protein X1 of SARS-CoV Urbani / Binding of serum 6 to linear peptides of protein X2 / Binding of serum 37 to linear peptides of protein X2 / Binding of serum 37 to looped/cyclic peptides of protein X2 of SARS-CoV Urbani / Binding of serum 6 to linear peptides of protein M of SARS-CoV Urbani / Binding of serum 37 to linear peptides of protein M of SARS-CoV Urbani / Binding of serum 6 to looped/cyclic peptides of protein M of SARS-CoV Urbani / Binding of serum 37 to looped/cyclic peptides of protein M of SARS-CoV Urbani / Binding of serum 6 to linear peptides of protein X3 of SARS-CoV Urbani / Binding of serum 37 to linear peptides of protein X3 of SARS-CoV Urbani / Binding of serum 37 to looped/cyclic peptides of protein X3 of SARS-CoV Urbani / Binding of serum 6 to linear peptides of protein X4 of SARS-CoV Urbani / Binding of serum 37 to linear peptides of protein X4 of SARS-CoV Urbani / Binding of serum 37 to looped/cyclic peptides of protein X4 of SARS-CoV Urbani / Binding of serum 6 to linear peptides of protein X5 of SARS-CoV Urbani / Binding of serum 37 to linear peptides of protein X5 of SARS-CoV Urbani / Binding of serum 37 to looped/cyclic peptides of protein X5 of SARS-CoV Urbani / Binding of serum 6 to linear peptides of protein N of SARS-CoV Urbani / Binding of serum 37 to linear peptides of protein N of SARS-CoV Urbani / Binding of serum 6 to linear peptide (PEPSCAN-ELISA) / Binding of serum 1a to looped/cyclic peptides of protein N of SARS-CoV Urbani / Binding of serum 1b to looped/cyclic peptides of protein N of SARS-CoV Urbani / Binding of serum 2 to looped/cyclic peptides of protein N of SARS-CoV Urbani / Binding of serum 6 to looped/cyclic peptides of protein N of SARS-CoV Urbani / Binding of serum 37 to looped/cyclic peptides of protein N of SARS-CoV Urbani / Binding of serum 62 to looped/cyclic peptides of protein N of SARS-CoV Urbani / Binding of serum London to looped/cyclic peptides of protein N of SARS-CoV Urbani / Binding of serum SARS-green to looped/cyclic peptides of protein N of SARS-CoV Urbani: unit not given here
[2] = system: control sera (pooled serum of ten healthy LUMC hospital workers; commercial negative donor pooled serum from the Dutch bloodbank); format: binding, human; design: Binding of Control serum LUMC to linear peptides / Binding of Control serum Blood-bank to linear peptides / Binding of Control serum LUMC to looped peptides / Binding of Control Serum Blood-Bank to Looped peptides / Binding of Control serum LUMC to linear peptides of the protein M of SARS-CoV Urbani / Binding of Control serum Blood-bank to linear peptides of the protein M of SARS-CoV Urbani / Binding of Control serum LUMC to looped peptides of the protein M of SARS-CoV Urbani / Binding of Control Serum Blood-Bank to Looped peptides of the protein M of SARS-CoV Urbani: unit not given here
[3] = system: rabbit serum obtained by immunizing a rabbit with the SARS-CoV strain Frankfurt 1; format: binding; design: Binding of a rabbit serum to linear peptides / Binding of a rabbit serum to looped peptides / Rabbit serum linear peptides / Rabbit serum looped peptides / Binding of a rabbit serum to linear peptides of protein N of SARS-CoV Urbani (Rabbit serum linear peptides) / Binding of a rabbit serum to looped/cyclic peptides of protein N of SARS-CoV Urbani (Rabbit serum looped peptides): unit not given here
[4] = system: recombinant human anti-SARS-CoV antibody 03-018; format: binding; design: Binding of antibody 03-018 to linear peptides of the N protein of SARS-CoV Urbani / Binding of antibody 03-018 to looped/cyclic peptides of the N protein of SARS-CoV Urbani: unit not given here

Sequence	Binding of serum 1a to linear peptides of protein N of SARS-CoV Urbani [1]	Binding of serum 1a to looped/cyclic peptides of protein N of SARS-CoV Urbani [1]	Binding of serum 1b to linear peptides of protein N of SARS-CoV Urbani [1]	Binding of serum 1b to looped/cyclic peptides of protein N of SARS-CoV Urbani [1]	Binding of serum 2 to linear peptides of protein N of SARS-CoV Urbani [1]	Binding of serum 2 to looped/cyclic peptides of protein N of SARS-CoV Urbani [1]	Binding of serum 6 to linear peptides of protein N of SARS-CoV Urbani [1]	Binding of serum 6 to looped/cyclic peptides of protein N of SARS-CoV Urbani [1]	Binding of serum 37 to linear peptides of protein N of SARS-CoV Urbani [1]	Binding of serum 37 to looped/cyclic peptides of protein N of SARS-CoV Urbani [1]	Binding of serum 62 to linear peptides of protein N of SARS-CoV Urbani [1]	Binding of serum 62 to looped/cyclic peptides of protein N of SARS-CoV Urbani [1]	Binding of serum London to linear peptides of protein N of SARS-CoV Urbani [1]	Binding of serum London to looped/cyclic peptides of protein N of SARS-CoV Urbani [1]	Binding of serum SARS-green to looped/cyclic peptides of protein N of SARS-CoV Urbani [1]	Binding of serum SARS-yellow to looped/cyclic peptides of protein N of SARS-CoV Urbani [1]	Binding of a rabbit serum to linear peptides of protein N of SARS-CoV Urbani (Rabbit serum linear peptides) [3]	Binding of a rabbit serum to looped/cyclic peptides of protein N of SARS-CoV Urbani (Rabbit serum looped peptides) [3]	Binding of antibody 03-018 to linear peptides of the N protein of SARS-CoV Urbani [4]	Binding of antibody 03-018 to looped/cyclic peptides of the N protein of SARS-CoV Urbani [4]	further results
KKKKTDEAQPLPQRQ	0.3	0.2	0.1	0.1	0.3	0.3	0.3	0.1	0.7	0.4	0.7	0.3	0.8	0.3	0.1	0.2	0.2	0.1	0.1	0.2	Binding of serum SARS-green to linear peptides of protein N of SARS-CoV Urbani [1]: 0.6; Binding of serum SARS-yellow to linear peptides of protein N of SARS-CoV Urbani [1]: 0.9; Control Serum Blood-Bank Looped peptides [2]: 0.6; Control serum Blood-bank linear peptides [2]: 1.0; Control serum LUMC linear peptides [2]: 0.9; Control serum LUMC looped peptides [2]: 0.4
KKKTDEAQPLPQRQK	0.2	0.2	0.1	0.1	0.2	0.1	0.7	0.0	0.9	0.3	0.6	0.2	1.1	0.3	0.0	0.0	0.2	0.1	0.1	0.2	Binding of serum SARS-green to linear peptides of protein N of SARS-CoV Urbani [1]: 0.4; Binding of serum SARS-yellow to linear peptides of protein N of SARS-CoV Urbani [1]: 1.0; Control Serum Blood-Bank Looped peptides [2]: 0.4; Control serum Blood-bank linear peptides [2]: 0.9; Control serum LUMC linear peptides [2]: 0.8; Control serum LUMC looped peptides [2]: 0.3
KKSAAEASKKPRQKR		0.2		0.1		0.3		0.2		0.5		0.3		0.4	0.2	0.3	0.4	0.8	0.1	0.2	Recognition of the peptide by sera of SARS-CoV infected individuals, and form (linear, looped/cyclic) in which it is recognized [1]: recognized in linear form; Binding of Control Serum Blood-Bank to Looped peptides [2]: 0.5; Binding of Control serum Blood-bank to linear peptides [2]: 1.0; Binding of Control serum LUMC to linear peptides [2]: 1.0; Binding of Control serum LUMC to looped peptides [2]: 0.5
KQPTVTLLPAADMDD	0.3	0.3	0.2	0.2	0.2	0.2	0.2	0.0	1.2	0.4	0.8	0.3	0.6	0.2	0.6	0.3	0.1	0.1	0.1	0.2	Binding of serum SARS-green to linear peptides of protein N of SARS-CoV Urbani [1]: 2.4; Binding of serum SARS-yellow to linear peptides of protein N of SARS-CoV Urbani [1]: 1.1; Control Serum Blood-Bank Looped peptides [2]: 0.4; Control serum Blood-bank linear peptides [2]: 0.7; Control serum LUMC linear peptides [2]: 0.7; Control serum LUMC looped peptides [2]: 0.3
KQYNVTQAFGRRGPE		0.0		0.0		0.1		0.2		0.0		0.0		0.2	0.4	0.0			0.1	0.1	Binding of serum 1a to linear peptide (PEPSCAN-ELISA) [1]: 0.3; Binding of serum 1b to linear peptide (PEPSCAN-ELISA) [1]: 0.1; Binding of serum 2 to linear peptide (PEPSCAN-ELISA) [1]: 0.1; Binding of serum 6 to linear peptide (PEPSCAN-ELISA) [1]: 0.2; Binding of serum 37 to linear peptide (PEPSCAN-ELISA) [1]: 0.6; Binding of serum 62 to linear peptide (PEPSCAN-ELISA) [1]: 0.7; Binding of serum London to linear peptide (PEPSCAN-ELISA) [1]: 0.5; Binding of serum SARS-green to linear peptide (PEPSCAN-ELISA) [1]: 0.3; Binding of serum SARS-yellow to linear peptide (PEPSCAN-ELISA) [1]: 0.6; Binding of Control Serum Blood-Bank to Looped peptides [2]: 0.5; Binding of Control serum Blood-bank to linear peptides [2]: 0.6; Binding of Control serum LUMC to linear peptides [2]: 0.7; Binding of Control serum LUMC to looped peptides [2]: 0.5; Recognition of the peptide by the rabbit serum [3]: recognized

— patent publication US20070128217A1 (priority 2003, published 2007)
